From ChEMBL document CHEMBL1142701, “CHMIS-C: a comprehensive herbal medicine information system for cancer” (2005) come the findings set out here.

Structures are written as SMILES.

The subject of this assay is Panel NCI-60 (60 carcinoma cell lines). The assay can be described thus: Growth inhibitory activity against human cancer cell line in the NCI's anticancer drug screening program. The assay is classed as functional.
A word on the GI50: it is the concentration giving 50% growth inhibition. Low values mean more potent growth inhibition, high ones less potent growth inhibition. Turning to `COC(=O)CC(O)(CCC(C)(C)O)C(=O)OC1C(OC)=CC23CCCN2CCc2cc4c(cc2C13)OCO4` (stereo not given), the GI50 came out at 10 nM.

In turn, `C[C@H]1[C@H](C)CC[C@]2(C(=O)O)CC[C@]3(C)C(=CCC4[C@@]5(C)CC[C@H](O)C(C)(C)C5CC[C@]43C)[C@H]12` (stereo not given in full) had a GI50 of 10 nM.

The compound `C[C@]12CC[C@H]3[C@@H](CC[C@@]4(O)C[C@@H](O)CC[C@]34C=O)[C@]1(O)CC[C@@H]2C1=CC(=O)OC1` registered a GI50 of 94 nM.

For `CC(=O)OC(C)(C)/C=C/C(=O)C(C)(O)C1C(O)CC2(C)C3CC=C4C(C[C@@H](O)C(=O)C4(C)C)C3(C)C(=O)CC12C` (stereo not given in full) [AMARIN], the GI50 came out at 10 nM. This GI50 is about 9.4-fold lower than that of the compound before.

The compound `O=c1cc(-c2ccc(O)cc2)oc2cc(O[C@@H]3O[C@H](CO)[C@@H](O)[C@H](O)[C@H]3O)cc(O)c12` [APIGETRIN] had a 50% growth inhibitory concentration (GI50) of 76 nM.

`COc1cccc2c1cc([N+](=O)[O-])c1c(C(=O)O)cc3c(c12)OCO3` [ARISTOLOCHIC ACID] had a 50% growth inhibitory concentration (GI50) of 883 nM.

Consider `CC[C@@]1(O)C(=O)OCc2c1cc1n(c2=O)Cc2cc3ccccc3nc2-1` [CAMPTOTHECIN], for which the GI50 came out at 10 nM.

Consider `COc1ccc2c(c[n+](C)c3c4cc5c(cc4ccc23)OCO5)c1OC` [CHELERYTHRINE CHLORIDE], for which halving of growth (GI50) required 188 nM.

With `CN1Cc2c(ccc3c2OCO3)C2C(O)Cc3cc4c(cc3C21)OCO4` (stereo not drawn) [CHELIDONINE (+)], halving of growth (GI50) required 433 nM.

Compound `COc1cc2c(c(OC)c1OC)-c1ccc(OC)c(=O)cc1[C@@H](NC(C)=O)CC2` [COLCHICINE] yielded a 50% growth inhibitory concentration (GI50) of 1.7 nM.

Regarding `c1c2c(cc3c1OCO3)-c1cc3ccc4c(c3c[n+]1CC2)OCO4` [COPTISINE], halving of growth (GI50) required 260 nM.

With `COc1c2cc3c(c1OC)CCN(C)[C@@H]3Cc1ccc(cc1)Oc1cc3c(c(OC)c1OC)CCN(C)[C@@H]3Cc1ccc(cc1)O2` [CYCLEANINE], growth was halved (GI50) at 17 nM.

As for `CO[C@H]1C[C@H](O[C@H]2CC[C@]3(C=O)[C@H]4CC[C@]5(C)[C@@H](C6=CC(=O)OC6)CC[C@]5(O)[C@@H]4CC[C@]3(O)C2)O[C@H](C)[C@H]1O` [CYMARIN], the GI50 came out at 39 nM.

For `C=C(CC[C@@H](C(=O)O)[C@H]1CC[C@@]2(C)C3=C(CC[C@]12C)[C@@]1(C)CC[C@H](O)C(C)(C)[C@@H]1CC3)C(C)C` [EBURICOIC ACID], the GI50 was found to be 10000 nM.

As for `CC(C)(O)/C=C/C(=O)[C@](C)(O)[C@@H]1C2CC(=O)[C@@]3(C)[C@@H]4C[C@H](O)C(=O)C(C)(C)C4=CC[C@H]3[C@]2(C)C[C@H]1O` (stereo not given in full) [ELATERICIN], halving of growth (GI50) required 23 nM.

As to `O=c1oc2c(O)c(O)cc3c(=O)oc4c(O)c(O)cc1c4c23` [ELLAGIC ACID], the 50% growth inhibitory concentration (GI50) was found to be 10 nM.

Take `Cc1cc(O)c2c(c1)C(=O)c1cc(O)cc(O)c1C2=O` [EMODIN]: the GI50 turned out to be 10000 nM.

On to `COc1ccc2cc1Oc1ccc(cc1)C[C@H]1c3cc(c(OC)cc3CCN1C)Oc1c(OC)c(OC)cc3c1[C@H](C2)N(C)CC3` [FANCHININ], for which it took 10 nM to inhibit growth by half (GI50). Against the preceding compound, the GI50 is about 1000-fold lower.

In turn, `COc1ccc2cc1Oc1ccc(cc1)C[C@@H]1c3cc(c(OC)cc3CCN1C)Oc1c(OC)c(OC)cc3c1[C@H](C2)N(C)CC3` [ISOTETRANDRINE] came in with a 50% growth inhibitory concentration (GI50) of 10 nM.

The compound `COc1ccc2c(c1O)-c1c(OC)c(OC)cc3c1C(C2)[N+](C)(C)CC3` (stereo not given) [MENISPERINE] yielded a GI50 of 41 nM.

`CC(C)c1oc(=O)cc2c1C(O)C1OC(=O)C3(C)C(O)C4OC4C2(C)C13` (stereo not given) [NAGILACTONE] gave a GI50 of 363 nM.

`O=C1N[C@@H]2C(=C[C@H](O)[C@@H](O)[C@H]2O)c2cc3c(c(O)c21)OCO3` [NARCICLASINE]: the concentration for 50% growth inhibition (GI50) was found to be 45 nM.

In the case of `COc1cc2c[n+](C)c3c4cc5c(cc4ccc3c2cc1OC)OCO5` [NITIDINE CHLORIDE], the GI50 was found to be 125 nM.

Consider `COC(=O)C(O)C(O)(CCC(C)C)C(=O)OC1C(OC)=CC23CCCN2CCc2cc4c(cc2C13)OCO4` (stereo not given) [OHARRINGTONINE], for which the GI50 was determined as 10 nM. Compared with the last compound, the GI50 is about 12-fold lower.

`CCCCCCCC/C=C\CCCCCCCC(=O)O` [OLEIC ACID] came in with a concentration for 50% growth inhibition (GI50) of 10000 nM.

`COC(=O)C[C@](O)(CCCC(C)(C)O)C(=O)O[C@@H]1C(OC)=C[C@]23CCCN2CCc2cc4c(cc2[C@H]13)OCO4` [OMACETAXINE MEPESUCCINATE]: the concentration for 50% growth inhibition (GI50) was found to be 4.4 nM.

Consider `C=C1C(=O)[C@]23[C@H](O)[C@H]1CC[C@H]2[C@@]12CO[C@]3(O)[C@@H](O)[C@@H]1C(C)(C)CC[C@@H]2O` [ORIDONIN], for which the concentration for 50% growth inhibition (GI50) is 453 nM.

Turning to `CC(=O)O[C@H]1C(=O)[C@@]2(C)[C@H]([C@H](OC(=O)c3ccccc3)[C@]3(O)C[C@H](OC(=O)[C@H](O)[C@@H](NC(=O)c4ccccc4)c4ccccc4)C(C)=C1C3(C)C)[C@]1(OC(C)=O)CO[C@@H]1C[C@@H]2O` [PACLITAXEL], it took 0.1 nM to inhibit growth by half (GI50). Against the preceding compound, the GI50 is about 4500-fold lower.

For the compound `COc1cc([C@@H]2c3cc4c(cc3[C@H](O)[C@H]3COC(=O)[C@H]23)OCO4)cc(OC)c1OC` [PODOFILOX], the 50% growth inhibitory concentration (GI50) stood at 10 nM.

Compound `CC(C=CC=C(C)/C=C/C1=C(C)CCCC1(C)C)=CCO` [RETINOL] displayed a GI50 of 28 nM. Against the preceding compound, the GI50 is about 2.8-fold higher.
